Measurements published in patent US20110263539A1, “SHIP 1 MODULATOR COMPOUNDS” (THE UNIVERSITY OF BRITISH COLUMBIA, priority 2006, published 2011).

Legend:
SHIP enzyme = experiment: In vitro SHIP enzyme assay (Assay 1); format: biochemical; on Assay Number 1: SHIP enzyme assay: key: a ‘+’ indicates a positive result for desired activity; a ‘−’ indicates a negative result for desired activity
Procedure: Assay 1) In vitro testing in a SHIP enzyme assay. Test compounds were dissolved in a suitable solvent (e.g. EtOH, DMSO and others) and diluted into aqueous buffer (20 mM Tris HCl, pH 7.5 and 10 mM MgCl2). SHIP enzyme assays were performed in 96-well microtitre plates with 10 ng of enzyme/well in a total volume of 25 μL of 20 mM Tris HCl, pH 7.5 and 10 mM MgCl2. SHIP enzyme was incubated with test extracts (provided in solvent) or vehicle for 15 min at 23° C. before the addition of 100 μM inositol-1,3,4,5-tetrakisphosphate (Echelon Biosciences Inc, Salt Lake City, Utah). After 20 min at 37° C. and the amount of inorganic phosphate released assessed by the addition of Malachite Green reagent and absorbance measurement at 650 nm.
For in vitro testing in the SHIP enzyme assay, AQX-016A and Compound 100 were dissolved in EtOH and diluted into aqueous buffer (20 mM Tris HCl, pH 7.5 and 10 mM MgCl2). The actual concentration of drug in solution was determined by optical density measurement at 280 nm (λmax for both compounds) after high speed centrifugation at 14 000×g for 30 min to remove precipitated drug. For testing on cells, compounds were formulated in the carrier cyclodextrin (Cyclodex Technologies, High Springs, Fla.) at 6 mM (2 mg/mL). For oral administration to animals, compounds were dissolved in 100% cremophore EL (Sigma-Aldrich Canada, Oakville, Ontario) at 150 mM (50 mg/mL) prior to dilution to 6 mM in phosphate buffer saline. However, while these compounds caged in cyclodextrin or formulated in cremophore EL micelles were very soluble in aqueous solution, they could not be used in the SHIP enzyme assays because of interference from both cyclodextrin and cremophore EL.
N-terminal His6 tagged SHIP enzyme was expressed in mammalian 293T cells by transient transfection with pME18S-His-SHIP plasmid and purified to >95% homogeneity by Ni-chelating bead chromatography (Qiagen, Mississauga, Ontario). Recombinant SHIP C2 domain (amino acid residues 725 to 863) was expressed in E. coli transformed with a pET28C expression vector constructed as described below. Recombinant protein purified from the cell lysates by Nichelating bead chromatography was >95% pure.
In vitro SHIP enzyme assay. SHIP enzyme assays were performed in 96-well microtitre plates with 10 ng of enzyme/well in a total volume of 25 μL of 20 mM Tris HCl, pH 7.5 and 10 Mm MgCl2. SHIP enzyme was incubated with test extracts (provided in DMSO) or vehicle for 15 min at 23° C. before the addition of 100 μM inositol-1,3,4,5-tetrakisphosphate (Echelon Biosciences Inc, Salt Lake City, Utah). After 20 min at 37° C. and the amount of inorganic phosphate released assessed by the addition of Malachite Green reagent and absorbance measurement at 650 nm. SHIP2 enzyme was purchased from Echelon Biosciences (Salt Lake City, Utah) and an equivalent amount of inositol phosphatase activity was used in the in vitro enzyme assay. Enzyme data are expressed as the mean of triplicates +/−SEM. Experiments were performed at least 3 times. (FIGS. 7A and 7B).

[1] = tested on: SHIP+/+ bone marrow derived macrophages; experiment: LPS stimulation of SHIP+/+ bone marrow derived macrophages; format: cell-based, mice
Procedure: Bone marrow cells were aspirated from 4 to 8 week old C57B16×129Sv mixed background mice and SHIP and SHIP cells prepared as described previously. Bone marrow derived macrophages from SHIP^+/+ and SHIP^−/− mice were obtained and maintained in IMDM supplemented with 10% FCS, 150 μM MTG, 2% C127 cell conditioned medium as a source of macrophage colony stimulating factor (M-CSF) (macrophage medium)
LPS stimulation of macrophages. For the analysis of LPS-stimulated TNFα production, 2×10^5 cells were plated the night before in 24 well plates in macrophage medium. The next day, the medium was changed and AQX-016A or carrier was added to cells at the indicated concentrations for 30 min prior to the addition of 10 ng/mL LPS. Supernatants were collected for TNFα determination by ELISA (BD Biosciences, Mississauga, ON, Canada). For analysis of intracellular signaling, 2×10^6 cells were plated the night before in 6 cm tissue culture plates. The next day, the cells were cultured in macrophage medium without M-CSF for 1 hr at 37° C. and then pretreated with AQX-016A or carrier for 30 min prior to the addition of 10 ng/mL LPS for 15 min. Cells were washed with 4° C. PBS and resuspended in lysis buffer (50 mM Hepes, 2 mM EDTA, 1 mM NaVO4, 100 mM NaF, 50 mM NaPPi and 1% NP40) supplemented with Complete Protease Inhibitor Cocktail (Roche, Montreal, Canada). Lysates were rocked at 4° C. for 30 min and clarified by centrifuging 20 min at 12000×g. Lysates were then made 1× in Laemmli's buffer, boiled 2 min and loaded onto 7.5% SDS polyacrylamide […]. Immunoblot analysis for phospho PKB (Cell Signalling, Mississauga, Ont), SHIP and actin (Santa Cruz, Santa Cruz, Calif.) were carried out as described previously.
The target specificity and biological efficacy of AQX-016A were assessed by comparing AQX-016A's effects on PI3K-regulated processes in primary SHIP^+/+ vs SHIP^−/− macrophages and mast cells. […] LPS stimulation of macrophages is associated with a PIP3-dependent release of pro-inflammatory mediators such as TNFα. […]

Cc1cc(O)cc2c1[C@]1(C)CCC3C(C)(C)CCC[C@]3(C)[C@H]1C2 (stereo partly shown) [Compound 100]
Assay Number 1: SHIP enzyme assay (SHIP enzyme; 100 μM inositol-1,3,4,5-tetrakisphosphate, Malachite Green): + | SHIP enzyme activity (SHIP enzyme; wild-type SHIP): enhanced SHIP enzyme activity in vitro | inhibition of TNFα production, SHIP+/+ vs SHIP−/− macrophages ([1]; LPS stimulated): selectively inhibited | EC50 for inhibition of TNFα production ([1]; LPS stimulated SHIP+/+ macrophages): submicromolar
